The record followed here is US11155558B2, “Dual mode of action soluble guanylate cyclase activators and phosphodiesterase inhibitors and uses thereof” (TOPADUR PHARMA AG, priority 2017, dated 2021).

Series [1] has as its target PDE5 enzyme isolated from human platelets (Homo sapiens (Human), UniProt O76074). The experiment in a line: PDE5 assay (Example 109), formation of 5′GMP from cGMP, SPA.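 On all read-outs here: tritiated 5′GMP counted by scintillation after SPA bead capture, enzyme reaction run 60 min at 22 °C, basal control is the mixture without enzyme.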 The note with it: for % inhibition at 5.0E−09 M: percent inhibition of control enzyme activity at 5.0E−09 M, assay of Example 109.
Procedure: Evaluation of the effects of compounds of the present invention on the activity of the human phosphodiesterase-5 quantified by measuring the formation of 5′GMP from cGMP using PDE5 enzyme isolated from human platelets.
Thereafter, the reaction is initiated by addition of the enzyme and the mixture is incubated for 60 min at 22° C.
For basal control measurements, the enzyme is omitted from the reaction mixture. Following incubation SPA beads are added. After 20 min at 22° C. under shaking, the amount of [3H]5′GMP is quantified with a scintillation counter (Topcount, Packard).
The standard inhibitory reference compound is dipyridamole, which is tested in each experiment at several concentrations to obtain an inhibition curve from which its IC50 value is calculated.
Series [2] deals with Human Pulmonary Artery Smooth Muscle Cells (hPASMC). In words: Measurements of cGMP in human pulmonary artery smooth muscle cells (hPASMC). The note with it: 30 min incubation, 0.1 pM-1 uM, compared to sildenafil, mirodenafil or compound 5 (FIG. 3). It is filed as cell-based. On the procedure: Human Pulmonary Artery Smooth Muscle Cells (hPASMC) were purchased from Clonetics™ Lonza (Lonza, reference number CC-2581) and cultured in Clonetics™ smooth muscle growth medium (Clonetics™ SmGM™-2 with BulletKit™ growth factor supplements (Lonza, reference number CC-3182) at 37° C. in 5% CO2. Culture medium was replaced each 48 hours. Cells were grown in 75 cm^2 culture plates. 48 h before the experiments, cells were trypsinized (Trypsin kit One ReagentPack™ (CC-5034), Lonza) and plated in 96 well plates precoated with collagen I at 10000 cells per well. 24 h before the experiments culture medium was replaced by serum-reduced (0.5% FBS) medium. […]
Measurements of intracellular cGMP were performed using the Amersham cGMP EIA System (GE Healthcare, RPN226) following the instructions of the manufacturer. […] Briefly, incubations were terminated by adding Amersham's lysis buffer 1 and cells left for 10 min under agitation to ensure complete lysis. cGMP in samples was then acetylated using triethylamine and acetic anhydride and determined by a competitive ELISA. The ELISA is based on the competition between acetylated cGMP in cell culture lysates and a peroxidase-labelled cGMP conjugate for limited binding sites on a cGMP specific antiserum immobilized on pre-coated 96 well MTP. cGMP was determined based on a standard curve. […]

The nature of series [3]: Measurements of human plasma protein binding. It is filed as in vitro ADME. The protocol:
An aliquot of 200 μL of human plasma containing test compound was spiked into donor well (red chamber) of the insert. 350 μL of PBS was spiked into receiver well (white chamber) of the insert.
The samples were matrix equilibrated with opposite matrix (25 μL of plasma/buffer sample was matched with 25 μL of blank buffer/plasma). Matrix matched samples were precipitated with 200 μL of acetonitrile containing internal standard. Samples were vortexed at 1000 rpm for 5 min and centrifuged at 4000 rpm for 10 min. Supernatant was separated, diluted 2 fold with water and analysed in LC-MS/MS. TO control samples were processed immediately after the preparation of plasma working stock solutions. These samples serves as a measure for calculating the percentage recovery of test compounds.

Series [4] has as its target recombinant human (rh) PDE5A (Homo sapiens (Human), UniProt O76074). The experiment in a line: Phosphodiesterase-5 activity assay (Example 110), radiometric SPA. It is filed as biochemical. On the procedure:
The inhibition of recombinant human (rh) PDE5A by test compounds is measured in a radiometric assay based on Scintillation Proximity Assay (SPA) technology. The substrate [3H]cGMP/cGMP is hydrolysed to [3H] 5′ GMP/5′ GMP contingent on the activity of rhPDE5A. The ensuing [3H] 5′ GMP/5′ GMP but not [3H] cGMP/cGMP binds to SPA yttrium silicate beads in the presence of Zn^++ stimulating the scintillant within the bead to emit light that is detected by a ß-counter. The assay is performed in a 96 well format.
The assay is done in 20 mM Tris HCl pH 7.4, 5 mM MgCl2, […] cGMP/[3H] cGMP (about 60000 dpm/well) substrate with rhPDE5A1 (GST tagged, SIGMA E9034) added to an amount not exceeding 20% cGMP hydrolysis within 20 min in Tris 20 mM pH 7.4 supplemented with 0.01% bovine serum albumin (BSA) in the presence of test compounds or vehicle (0.1% DMSO). The final assay volume amounts to 100 μl and the reaction is run for 20 min at 37° C.
The hydrolysis of [3H] cGMP/cGMP by rhPDE5A is terminated by adding SPA beads at 50 µl/well (Perkin Elmer, RPNQ0024), pre-diluted in water as per manufacturer's instructions and supplemented with 3-isobutyl-1-methylxanthine (1 mM). Beads are allowed to sediment for at least 30 min before measurement in a Wallac Microbeta 2 (Perkin Elmer).
In general, test compounds are added at seven different concentrations from […] in log steps. […] Results (IC50) are given as the mean from at least two independent experiments each performed in triplicate.

Consider `CCCOc1ccc(S(=O)(=O)N2CCC(CCO[N+](=O)[O-])CC2)cc1-c1nc2c(CCC)cn(CC)c2c(=O)[nH]1` [Compound 1b, 2-(1-((3-(5-ethyl-4-oxo-7-propyl-4,5-dihydro-3H-pyrrolo[3,2-d]pyrimidin-2-yl)-4-propoxyphenyl)sulfonyl)piperidin-4-yl)ethyl nitrate], for which, in series [1], the IC50 was > 0.01 µM and the “% inhibition at 5.0E−09 M” value was 12.4%. For the same compound, the “efficacy in increasing intracellular cGMP level” value in series [2] is “significantly higher efficacy in increasing cGMP level”. In addition, in series [3], the “% Bound in Plasma” value was found to be 99.95% and the fraction unbound is 0.0005. In addition, the recovery in series [3] (human) is 100%.

For the compound `CCCOc1ccc(S(=O)(=O)N2CCC([C@H](CO[N+](=O)[O-])O[N+](=O)[O-])CC2)cc1-c1nc2c(CCC)c(/C=N/O)n(C)c2c(=O)[nH]1` [Compound 3o, (R,E)-1-(1-((3-(6-((hydroxyimino)methyl)-5-methyl-4-oxo-7-propyl-4,5-dihydro-3H-pyrrolo[3,2-d]pyrimidin-2-yl)-4-propoxyphenyl)sulfonyl)piperidin-4-yl)ethane-1,2-diyl dinitrate], the IC50 in series [4] amounted to 0.013 µM.

Take `CCCOc1ccc(S(=O)(=O)N2CCN(CCO[N+](=O)[O-])CC2)cc1-c1nc2c(CCC)cn(CC)c2c(=O)[nH]1` [Compound 1i, 2-(4-((3-(5-ethyl-4-oxo-7-propyl-4,5-dihydro-3H-pyrrolo[3,2-d]pyrimidin-2-yl)-4-propoxyphenyl)sulfonyl)piperazin-1-yl)ethyl nitrate]: in series [1], the IC50 is 0.002 µM and the “% inhibition at 5.0E−09 M” value came out at 60.0%. Moreover, in series [2], the “efficacy in increasing intracellular cGMP level” value is given as “significantly higher efficacy in increasing cGMP level”.
